Laboratory results reported in patent publication US11065253B2, “Arylquinazolines” (Merck Patent GmbH, priority 2013, dated 2021).

Key:
Kv11.1 (hERG) channel = Kv11.1 (hERG) channel (Homo sapiens (Human), UniProt Q12809); test: Kv11.1 ion channel binding assay (Predictor hERG fluorescence polarisation); settings: class symbol marked with asterisk (*)
Protocol: D) Kv11.1 Ion Channel Binding Assay
Kv11.1 (hERG=human ether a go-go related […]) is a cardiac K^+ channel which should if possible not interact with the test substances. This interaction is determined quantitatively with the aid of the Predictor™ hERG Fluorescence Polarizations (FP) Assays from Life Technologies. In the case of this assay principle, cardiomyocyte cell membranes having a certain proportion of Kv11.1 channels are isolated. A dye-labelled Kv11.1 binding partner gives a high fluorescence polarisation signal by interaction with the Kv11.1. In the case of displacement of the dye, a reduction in the fluorescence polarisation signal occurs.
The assay is carried out automatically as follows: 15 nl of the test substances (highest concentration: 10 mM, 10 concentrations: dilution factors 1:3.16, DMSO) are transferred into an empty microtitre plates having 384 wells by means of an acoustic pipetter. 3 μl of the isolated membranes are subsequently added. Membranes and test substances are incubated at 22° C. for 15 min (+/−5 min). In the next step, the dye-labelled binding partner is added, followed by incubation at 22° C. After incubation for two hours, the measurement of the fluorescence polarisation is carried out on an Envision multimode Reader. Measured raw data are standardised with the aid of Genedata Assay Analyzer. The IC50 and % effect values are calculated in Genedata Condoseo.

[1] = tested on: phospho-serine 2056 DNA-PK in HCT116 cells; test: DNA-PK phosphorylation at serine 2056 (cellular), ELISA in bleomycin-treated HCT116 cells; format: cell-based; settings: phospho-serine 2056 DNA-PK, bleomycin-treated HCT116 cells; read-out: IC50 pDNA-PK
In short: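 HCT116 cells grown overnight were co-treated with 10 μM bleomycin and test compound for 6 h at 37 °C. Phospho-DNA-PK was quantified by chemiluminescent ELISA and normalised to total DNA-PKcs signal, with DMSO control as blank.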

Chain of Kv11.1 (hERG) channel (Q12809 whole entry): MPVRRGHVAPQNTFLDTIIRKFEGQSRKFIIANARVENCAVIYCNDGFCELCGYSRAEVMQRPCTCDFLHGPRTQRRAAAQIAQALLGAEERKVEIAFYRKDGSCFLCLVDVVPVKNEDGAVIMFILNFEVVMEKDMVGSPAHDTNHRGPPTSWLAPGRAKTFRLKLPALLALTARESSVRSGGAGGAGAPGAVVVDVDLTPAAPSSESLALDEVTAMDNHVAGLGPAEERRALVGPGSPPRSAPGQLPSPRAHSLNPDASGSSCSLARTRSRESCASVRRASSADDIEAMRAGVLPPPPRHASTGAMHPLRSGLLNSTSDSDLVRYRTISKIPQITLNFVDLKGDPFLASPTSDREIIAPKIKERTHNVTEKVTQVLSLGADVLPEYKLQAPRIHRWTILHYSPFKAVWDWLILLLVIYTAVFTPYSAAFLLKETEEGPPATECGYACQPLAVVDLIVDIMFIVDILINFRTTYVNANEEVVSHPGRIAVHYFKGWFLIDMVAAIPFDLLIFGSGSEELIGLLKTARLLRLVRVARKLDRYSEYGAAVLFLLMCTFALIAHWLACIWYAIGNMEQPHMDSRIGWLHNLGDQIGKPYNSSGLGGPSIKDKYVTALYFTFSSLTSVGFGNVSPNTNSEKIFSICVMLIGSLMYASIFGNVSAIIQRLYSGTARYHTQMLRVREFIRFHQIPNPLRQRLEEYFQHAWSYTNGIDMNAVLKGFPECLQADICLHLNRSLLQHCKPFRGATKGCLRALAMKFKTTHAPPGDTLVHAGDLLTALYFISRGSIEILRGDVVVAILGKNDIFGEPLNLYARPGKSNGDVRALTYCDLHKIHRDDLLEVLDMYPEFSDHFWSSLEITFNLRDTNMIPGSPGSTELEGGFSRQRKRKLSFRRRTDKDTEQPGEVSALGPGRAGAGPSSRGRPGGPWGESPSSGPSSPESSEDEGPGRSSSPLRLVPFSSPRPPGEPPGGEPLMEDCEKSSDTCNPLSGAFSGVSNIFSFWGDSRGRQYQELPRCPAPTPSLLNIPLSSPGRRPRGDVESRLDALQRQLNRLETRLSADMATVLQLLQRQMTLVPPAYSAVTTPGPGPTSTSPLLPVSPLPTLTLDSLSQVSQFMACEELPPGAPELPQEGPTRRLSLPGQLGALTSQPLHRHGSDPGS

Structure (SMILES): [2H]C1([2H])OC([2H])([2H])C([2H])([2H])N(c2ccc3c(-c4cc(C(O)c5ccc(OC)nn5)c(Cl)cc4F)ncnc3c2)C1([2H])[2H] (stereo not drawn) [Example 262, [2-Chloro-4-fluoro-5-[7-(2,2,3,3,5,5,6,6-octadeuterio-morpholin-4-yl)quinazolin-4-yl]phenyl]-(6-methoxypyridazin-3-yl)methanol]
- Ki [Kv1.11 hERG] (Kv11.1 (hERG) channel): A*
- IC50 [1]: < 500 nM

Structure (SMILES): COc1nccnc1C(O)c1ccc(F)c(-c2ncnc3cc(N4CCOCC4)cc(F)c23)c1 (stereo not drawn) [Example 252, [4-Fluoro-3-(5-fluoro-7-morpholin-4-yl-quinazolin-4-yl)-phenyl]-(3-methoxy-pyrazin-2-yl)-methanol]
- Ki [Kv1.11 hERG] (Kv11.1 (hERG) channel): A*
- IC50 [1]: < 500 nM

Structure (SMILES): CNC(=O)C(c1ccc(F)c(-c2ncnc3cc(N4CCOCC4)ccc23)c1)c1ncccc1Cl (stereo not drawn) [Example 230, 2-(3-Chloro-pyridin-2-yl)-2-[4-fluoro-3-(7-morpholin-4-yl-quinazolin-4-yl)-phenyl]-N-methyl-acetamide]
- Ki [Kv1.11 hERG] (Kv11.1 (hERG) channel): B*
- IC50 [1]: 5000 to 10000 nM
